Tested on: ScGT1 cells
Conditions: for cells remaining viable after treatment: mouse

Substance	cell viability / cytotoxicity	cells remaining viable after treatment [%]
humic acids [HA]	remain viable	96
fulvic acids [FA]	remain viable	94

Source: patent US20120149654A1 (priority 2009, published 2012)
